Test results from ChEMBL document CHEMBL3120081, “Imidazopyridazine hepatitis C virus polymerase inhibitors. Structure-activity relationship studies and the discovery of a novel, traceless prodrug mechanism” (J Med Chem, 2014).
pEC50: −log10 of the molar value. Values after ≈ are worked out from the molar mass of the structure shown.

Columns and labels:
Hepatitis C virus [1] = assay: Antiviral activity against Hepatitis C virus genotype 1b infected in human HuH7 cells after 48 hrs by luciferase reporter gene assay; assay type: functional, organism-based, Hepacivirus hominis; conditions: Huh-7, 48 h
[2] = Oral bioavailability in CD rat at 5 mg/kg by LC/MS/MS analysis; assay type: ADME, organism-based; conditions: in vivo
[3] = AUC in CD rat at 1000 mg/kg by LC/MS/MS analysis; assay type: ADME, organism-based; design: dose 1000 mg/kg; conditions: plasma
[4] = Oral bioavailability in beagle dog at 5 mg/kg by LC/MS/MS analysis; assay type: ADME, organism-based, Canis lupus familiaris; conditions: in vivo
Hepatitis C virus [5] = assay: Antiviral activity against Hepatitis C virus genotype 1a infected in human HuH7 cells after 48 hrs by luciferase reporter gene assay; assay type: functional, organism-based, Hepacivirus hominis; conditions: subtype 1a, Huh-7, 48 h
[6] = Solubility of the compound in phosphate buffered saline at pH 7.4 after 1 hr by chemiluminescence nitrogen detection assay; assay type: physicochemical
[7] = Stability in rat microsomes at 0.5 uM by LC/MS/MS analysis; assay type: ADME, Microsome
[8] = Stability of the compound in water at 1 uM at pH 2 up to 60 mins by LC/MS/MS analysis; assay type: physicochemical; conditions: buffer, pH 2, 1 h
Hepatocyte [9] = assay: Stability in rat hepatocytes at 0.5 uM by LC/MS/MS analysis; assay type: ADME, cell-based
[10] = Stability of the compound in blood (unknown origin) at 1 uM up to 60 mins by LC/MS/MS analysis; assay type: ADME, tissue-based; conditions: 1 h
[11] = Stability of the compound in water at 1 uM at pH 7 up to 60 mins by LC/MS/MS analysis; assay type: physicochemical; conditions: buffer, pH 7, 1 h
[12] = Stability of the compound in water assessed as 5-((2-(2,3-Difluorophenyl)-5H-imidazo[4,5-d]pyridazin-5-yl)-methyl)-3-(4-propoxy-2-(trifluoromethyl)phenyl)isoxazole level at 1 uM at pH 2 up to 60 mins by LC/MS/MS analysis; assay type: physicochemical; conditions: buffer, pH 2, 1 h
[13] = Half life in blood (unknown origin) assessed as 5-((2-(2,3-Difluorophenyl)-5H-imidazo[4,5-d]pyridazin-5-yl)-methyl)-3-(4-propoxy-2-(trifluoromethyl)phenyl)isoxazole level; assay type: ADME, tissue-based
Hepatocyte [14] = assay: Stability in rat hepatocytes assessed as 5-((2-(2,3-Difluorophenyl)-5H-imidazo[4,5-d]pyridazin-5-yl)-methyl)-3-(4-propoxy-2-(trifluoromethyl)phenyl)isoxazole level at 0.5 uM by LC/MS/MS analysis; assay type: ADME, cell-based
Hepatocyte [15] = assay: Half life in rat hepatocytes assessed as 5-((2-(2,3-Difluorophenyl)-5H-imidazo[4,5-d]pyridazin-5-yl)-methyl)-3-(4-propoxy-2-(trifluoromethyl)phenyl)isoxazole level; assay type: ADME, cell-based
[16] = Stability of the compound in water assessed as 5-((2-(2,3-Difluorophenyl)-5H-imidazo[4,5-d]pyridazin-5-yl)-methyl)-3-(4-propoxy-2-(trifluoromethyl)phenyl)isoxazole level at 1 uM at pH 7 up to 60 mins by LC/MS/MS analysis; assay type: physicochemical; conditions: buffer, pH 7, 1 h
[17] = Stability of the compound in blood (unknown origin) assessed as 5-((2-(2,3-Difluorophenyl)-5H-imidazo[4,5-d]pyridazin-5-yl)-methyl)-3-(4-propoxy-2-(trifluoromethyl)phenyl)isoxazole level at 1 uM up to 60 mins by LC/MS/MS analysis; assay type: ADME, tissue-based; conditions: 1 h
[18] = Stability in rat microsomes assessed as 5-((2-(2,3-Difluorophenyl)-5H-imidazo[4,5-d]pyridazin-5-yl)-methyl)-3-(4-propoxy-2-(trifluoromethyl)phenyl)isoxazole level at 0.5 uM by LC/MS/MS analysis; assay type: ADME, Microsome

SMILES | pEC50 (Hepatitis C virus [1]) | pEC50 (Hepatitis C virus [5]) | other results
Fc1cccc(-c2nc3cnn(Cc4cc(-c5ccc(C(F)(F)F)nc5)no4)cc-3n2)c1F | 6.52 | – | –
CCCOc1ccc(-c2cc(C(C(=O)OCCCO)n3cc4nc(-c5cccc(F)c5F)nc-4cn3)on2)c(C(F)(F)F)c1 (centres undefined) | 8.22 | 7.64 | bioavailability [2]: 91%; AUC [3]: 64000 ng·h/mL; bioavailability [4]: 63%; solubility kinetic at 1 h [6]: 14 µM (≈ 8.65 µg/mL)
Fc1cccc(-c2nc3cnn(Cc4cc(-c5ccc(C(F)(F)F)cc5C(F)(F)F)no4)cc-3n2)c1 | < 4.30 | – | –
Fc1cccc(-c2nc3cnn(Cc4cn(-c5ccc(C(F)(F)F)cc5C(F)(F)F)cn4)cc-3n2)c1F | 5.15 | < 4.30 | –
Fc1cccc(-c2nc3cnn(Cc4ccc(-c5ccc(C(F)(F)F)cc5C(F)(F)F)cn4)cc-3n2)c1F | 7.40 | 6.52 | –
CCCOc1ccc(-c2cc(Cn3cc4nc(-c5cccc(F)c5F)nc-4cn3)on2)c(C(F)(F)F)c1 | 8.52 | 7.68 | bioavailability [2]: 33%; Stability [7]: Stable; Stability [8]: Stable; bioavailability [4]: 12%; Stability (Hepatocyte [9]): Stable; solubility kinetic at 1 h [6]: 1.6 µM (≈ 0.825 µg/mL); Stability [10]: Stable; Stability [11]: Stable
COc1ccc(-c2cc(Cn3cc4nc(-c5cccc(F)c5F)nc-4cn3)on2)cc1 | 7.05 | 6.52 | –
Fc1cccc(F)c1-c1nc2cnn(Cc3cc(-c4ccc(C(F)(F)F)cc4C(F)(F)F)no3)cc-2n1 | 5.30 | – | –
Fc1cccc(-c2nc3cnn(Cc4cc(-c5ccc(C(F)(F)F)cc5)no4)cc-3n2)c1F | 7.62 | 7.15 | –
Fc1cccc(-c2nc3cnn(CCCc4ccc(C(F)(F)F)cc4C(F)(F)F)cc-3n2)c1F | 4.28 | 4.80 | –
Cc1ccc(-c2cc(Cn3cc4nc(-c5cccc(F)c5F)nc-4cn3)on2)cc1 | 7.64 | 6.96 | –
CCCOc1ccc(-c2cc(C(C(=O)OC)n3cc4nc(-c5cccc(F)c5F)nc-4cn3)on2)c(C(F)(F)F)c1 (centres undefined) | 8.52 | 7.68 | bioavailability [2]: 80%; AUC [3]: 118000 ng·h/mL; Stability [12]: Stable; bioavailability [4]: 51%; t1/2 [13]: 15 min; solubility kinetic at 1 h [6]: 17 µM (≈ 9.75 µg/mL); Stability (Hepatocyte [14]): Stable; t1/2 (Hepatocyte [15]): 15 min; Stability [16]: Stable; Stability [17]: Stable; Stability [18]: Stable
COc1ncc(-c2cc(Cn3cc4nc(-c5cccc(F)c5F)nc-4cn3)on2)cn1 | < 4.30 | < 4.30 | –
CC(c1cc(-c2ccc(C(F)(F)F)cc2C(F)(F)F)no1)n1cc2nc(-c3cccc(F)c3F)nc-2cn1 (racemic) | 7.10 | 6.05 | –
FC(F)(F)c1ccc(-c2cc(Cn3cc4nc(-c5cccs5)nc-4cn3)on2)c(C(F)(F)F)c1 | 5.76 | – | –
